Values of other authors in patent publication US20070116643A1, “Novel aryloxypropanamines” (Concert Pharmaceuticals Inc., priority 2005, published 2007).
Where a name gives a salt, the structure may show the parent alone.

Columns and labels:
5-HT reuptake [1] = details: rodent models
[2] = tested on: central monoamine receptors
NE reuptake = details: in humans
5-HT reuptake [3] = details: in humans

For `CNCC[C@H](Oc1cccc2ccccc12)c1cccs1` [Compound A, (S)-N-methyl-3-(naphthalen-1-yloxy)-3-(thiophen-2-yl)propan-1-amine hydrochloride], the “inhibition of neural cell firing / 5-HT reuptake” value (5-HT reuptake [1]) is listed as “inhibiting neural cell firing by reducing reuptake of 5-HT”, the “affinity for central monoamine receptors” value [2] is listed as “lacks affinity for central monoamine receptors” and the “inhibition of NE reuptake” value (NE reuptake) is listed as “recapitulates the preclinically observed inhibition of 5-HT and NE reuptake”. The “circulating radioactivity attributable to parent drug, AUC basis” value (humans, radiolabeled Compound A) was “approximately 3%”, the extent of metabolism (oral administration to humans, predominantly oxidative mechanisms) was “rapidly and extensively metabolized” and the “inhibition of 5-HT reuptake” value (5-HT reuptake [3]) was “recapitulates the preclinically observed inhibition of 5-HT and NE reuptake”.
